The target of assay [1] is Protease (Human immunodeficiency virus 1) (UniProt Q9YQ12). Kind of assay: Inhibition of HIV-1 protease using DABCYL-Abu-Ser-Gln-Asn-Tyr-Pro-Ile-Val-Gln-EDANS as substrate preincubated at 10 uM for 15 mins before substrate addition measured over 15 mins by fluorometric assay.
The target is the same in assay [2]. Kind of assay: Inhibition of HIV-1 protease using DABCYL-Abu-Ser-Gln-Asn-Tyr-Pro-Ile-Val-Gln-EDANS as substrate preincubated at 1 uM for 15 mins before substrate addition measured over 15 mins by fluorometric assay.
Assay [3] addresses Protease (Human immunodeficiency virus 1, UniProt Q9YQ12). Kind of assay: Inhibition of HIV-1 protease using DABCYL-Abu-Ser-Gln-Asn-Tyr-Pro-Ile-Val-Gln-EDANS as substrate preincubated for 15 mins before substrate addition measured over 15 mins by fluorometric assay.

Sequence of Protease (Human immunodeficiency virus 1) (Q9YQ12 as listed by the source): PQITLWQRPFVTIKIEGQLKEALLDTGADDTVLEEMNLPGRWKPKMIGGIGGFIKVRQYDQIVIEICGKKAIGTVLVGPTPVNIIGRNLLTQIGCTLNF
Sequence of Protease (Q9YQ12 whole entry): as the sequence (Q9YQ12 as listed by the source) above

The term inhibition denotes the percentage by which the read-out fell short of the control. In assay [1], `CC(C)CCNC(=O)[C@@H]1O[C@@H]2O[C@H]1C(=O)N(Cc1ccccc1)[C@H]2Cc1ccccc1` registered an inhibition of 75%.

Molecule `CC(C)C[C@@H](CO)NC(=O)[C@@H]1O[C@@H]2O[C@H]1C(=O)N(Cc1ccccc1)[C@@H]2Cc1ccccc1` registered an inhibition in assay [1] of 80%. In assay [1], `O=C([C@@H]1O[C@@H]2O[C@H]1C(=O)N(Cc1ccccc1)[C@@H]2Cc1ccccc1)N1CCC[C@H]1CO` displayed an inhibition of 58%. Turning to `O=C([C@@H]1O[C@@]2(c3ccccc3)CN(C(c3ccccc3)c3ccccc3)C(=O)[C@@H]1O2)N1CCN(CCO)CC1`, the inhibition in assay [1] was 71%. What is called IC50 is the midpoint of a concentration-inhibition curve. Turning to `CC(C)C[C@@H](CO)NC(=O)[C@@H]1O[C@H]2CN(Cc3ccccc3)C(=O)[C@@H]1O2`, the inhibition was 82% in assay [1] and 55% in assay [2]. Moreover, the midpoint of inhibition in assay [3], the IC50, lay at 2.6 µM.

`CC(C)C[C@H](C(=O)O)N1C[C@@H]2O[C@@H](C(=O)N3CCCCC3)[C@@H](O2)C1=O` showed an inhibition in assay [1] of 43%. Regarding `O=C([C@@H]1O[C@H]2CN(Cc3ccccc3)C(=O)[C@@H]1O2)N1CCCCC1`, the inhibition in assay [1] amounted to 21%. `O=C([C@H]1O[C@@H]2CN(Cc3ccccc3)C(=O)[C@H]1O2)N1CCN(CCO)CC1` yielded an inhibition in assay [1] of 47%.

In turn, `O=C(NCCCO)[C@@H]1O[C@H]2CN(Cc3ccccc3)C(=O)[C@@H]1O2` showed an inhibition in assay [1] of 47%.

With `O=C([C@@H]1O[C@@H]2O[C@H]1C(=O)N(Cc1ccccc1)[C@@H]2Cc1ccccc1)N1CCCCC1`, the inhibition in assay [1] was 59%.

`CNCCNC(=O)[C@@H]1O[C@@H]2O[C@H]1C(=O)N(Cc1ccccc1)[C@H]2Cc1ccccc1` displayed an inhibition in assay [1] of 49%. In assay [1], `CCCCNC(=O)[C@@H]1O[C@@]2(c3ccccc3)CN(C(c3ccccc3)c3ccccc3)C(=O)[C@@H]1O2` came in with an inhibition of 66%.

With `CCOC(=O)N1CCN(C(=O)[C@@H]2O[C@H]3CN(Cc4ccccc4)C(=O)[C@@H]2O3)CC1`, the inhibition in assay [1] is 57%. On the same count and under the same terms, the same measure for `CCCC[C@@H](C(=O)OC)N1C[C@@H]2O[C@@H](C(=O)N3CCCCC3)[C@@H](O2)C1=O`: 43%. Consider `CC(C)CC(=O)N[C@H](C(=O)N[C@H](C(=O)N[C@@H](CC(C)C)[C@@H](O)CC(=O)N[C@@H](C)C(=O)N[C@@H](CC(C)C)[C@@H](O)CC(=O)O)C(C)C)C(C)C`, for which the inhibition in assay [1] was 74%; in assay [2], 56%.

As for `CNCCNC(=O)[C@@H]1O[C@@]2(c3ccccc3)CN(C(c3ccccc3)c3ccccc3)C(=O)[C@@H]1O2`, the inhibition in assay [1] came out at 33%. Consider `CCCC[C@@H](C(=O)OC)N1C[C@H]2O[C@H](C(=O)N3CCCCC3)[C@H](O2)C1=O`, for which the inhibition in assay [1] stood at 46%.

In the case of `O=C([C@@H]1O[C@@H]2O[C@H]1C(=O)N(Cc1ccccc1)[C@H]2Cc1ccccc1)N1CCN(CCO)CC1`, the inhibition was 75% in assay [1] and 45% in assay [2]. In assay [3], the IC50 is 5.6 µM. In assay [1], `COC(=O)[C@H](CC(C)C)N1C[C@@H]2O[C@@H](C(=O)N3CCN(Cc4ccccc4)CC3)[C@@H](O2)C1=O` showed an inhibition of 36%. On to `CCCNC(=O)[C@@H]1O[C@@H]2O[C@H]1C(=O)N(Cc1ccccc1)[C@H]2Cc1ccccc1`, for which the inhibition in assay [1] came to 56%. In the case of `CCCCNC(=O)[C@@H]1O[C@@H]2O[C@H]1C(=O)N(Cc1ccccc1)[C@H]2Cc1ccccc1`, the values for the inhibition in assay [1] and in assay [2] were 67% and 33%, respectively. In assay [3], half-maximal inhibition (IC50) was put at 7.5 µM. As to `O=C(NC1CCCCC1)[C@@H]1O[C@@H]2O[C@H]1C(=O)N(Cc1ccccc1)[C@H]2Cc1ccccc1`, the inhibition in assay [1] amounted to 68%; in assay [2] it was 69%. The molecule further gave an IC50 in assay [3] of 1.9 µM.

Consider `O=C(NCCc1ccccc1)[C@@H]1O[C@H]2CN(Cc3ccccc3)C(=O)[C@@H]1O2`, for which, in assay [1], the inhibition turned out to be 31%. Same read-out and setting: the same measure for `O=C([C@@H]1O[C@@H]2O[C@H]1C(=O)N(Cc1ccccc1)[C@@H]2Cc1ccccc1)N1CCOCC1`: 17%.

Regarding `C[C@@H](CO)NC(=O)[C@@H]1O[C@H]2CN(Cc3ccccc3)C(=O)[C@@H]1O2`, the inhibition in assay [1] turned out to be 90%; in assay [2], 54%. In addition, in assay [3], the IC50 came to 1.5 µM. For the molecule `CC[C@H](C)[C@@H](C(=O)OC)N1C[C@@H]2O[C@@H](C(=O)N3CCCCC3)[C@@H](O2)C1=O`, the inhibition in assay [1] amounted to 30%.

Turning to `COC(=O)[C@H](CC(C)C)N1C[C@@H]2O[C@@H](C(=O)N[C@H](CO)CC(C)C)[C@@H](O2)C1=O`, the inhibition in assay [1] was 57%. In turn, `COC(=O)[C@H](CC(C)C)N1C[C@@H]2O[C@@H](C(=O)N3CCN(CCc4ccccc4)CC3)[C@@H](O2)C1=O` returned an inhibition in assay [1] of 70%. Turning to `C[C@@H](CO)NC(=O)[C@@H]1O[C@@H]2O[C@H]1C(=O)N(Cc1ccccc1)[C@@H]2Cc1ccccc1`, in assay [1], the inhibition came to 81%. Take `O=C1[C@@H]2O[C@H](CN1Cc1ccccc1)O[C@H]2C(=O)N1CCC[C@@H]1CO`: the inhibition in assay [1] is 77%. In assay [1], `CC(C)C[C@@H](C(=O)O)N1C[C@@H]2O[C@@H](C(=O)N3CCCCC3)[C@@H](O2)C1=O` gave an inhibition of 63%. Turning to `O=C(NC1CCCCC1)[C@@H]1O[C@H]2CN(Cc3ccccc3)C(=O)[C@@H]1O2`, in assay [1], the inhibition turned out to be 34%. Take `C#CCNC(=O)[C@@H]1O[C@@H]2O[C@H]1C(=O)N(Cc1ccccc1)[C@H]2Cc1ccccc1`: the inhibition in assay [1] turned out to be 78%; in assay [2], 60%. Further, the IC50 in assay [3] stood at 0.7 µM.

Values taken from ChEMBL document CHEMBL3352308, “Identification of constrained peptidomimetic chemotypes as HIV protease inhibitors” (Eur J Med Chem, 2014).
